Assay [1] addresses T1, Ubiquitin carboxyl-terminal hydrolase 7 (Homo sapiens, UniProt Q93009). The settings on record: dose 3.12 µM.
Description: Induction of thermal stabilization of USP7 (unknown origin) assessed as change in melting temperature at 3.12 uM incubated under 35 to 60 degreeC by fluorescence based thermal shift assay
Assay [2] deals with T2, Ubiquitin carboxyl-terminal hydrolase 15 (Homo sapiens) (UniProt Q9Y4E8).
T2 sequence (whole entry): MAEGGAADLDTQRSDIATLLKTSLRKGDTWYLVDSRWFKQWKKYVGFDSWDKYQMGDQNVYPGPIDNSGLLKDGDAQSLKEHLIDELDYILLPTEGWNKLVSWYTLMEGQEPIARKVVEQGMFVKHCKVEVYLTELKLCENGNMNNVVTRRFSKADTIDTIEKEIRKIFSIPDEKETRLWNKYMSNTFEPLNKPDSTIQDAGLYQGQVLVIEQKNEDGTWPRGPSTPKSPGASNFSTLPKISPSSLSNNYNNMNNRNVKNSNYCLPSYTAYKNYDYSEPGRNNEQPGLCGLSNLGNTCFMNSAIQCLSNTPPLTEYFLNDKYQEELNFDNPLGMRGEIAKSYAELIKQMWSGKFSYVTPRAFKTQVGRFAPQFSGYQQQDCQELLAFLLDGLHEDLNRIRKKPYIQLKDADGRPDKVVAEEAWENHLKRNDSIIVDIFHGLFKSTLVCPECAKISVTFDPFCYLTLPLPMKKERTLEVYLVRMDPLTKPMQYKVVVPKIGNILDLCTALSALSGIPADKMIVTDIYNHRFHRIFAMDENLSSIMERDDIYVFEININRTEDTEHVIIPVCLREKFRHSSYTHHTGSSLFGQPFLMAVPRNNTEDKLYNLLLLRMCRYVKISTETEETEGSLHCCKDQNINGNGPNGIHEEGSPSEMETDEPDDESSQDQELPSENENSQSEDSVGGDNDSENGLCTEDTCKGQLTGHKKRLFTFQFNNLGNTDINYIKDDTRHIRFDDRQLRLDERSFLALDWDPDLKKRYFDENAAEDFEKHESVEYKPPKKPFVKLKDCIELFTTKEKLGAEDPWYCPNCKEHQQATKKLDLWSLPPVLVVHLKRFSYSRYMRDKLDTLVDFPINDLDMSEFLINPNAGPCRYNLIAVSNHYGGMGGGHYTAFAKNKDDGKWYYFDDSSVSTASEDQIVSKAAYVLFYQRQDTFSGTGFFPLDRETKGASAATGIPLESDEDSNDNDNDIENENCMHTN
Briefly: Inhibition of USP15 (unknown origin) using Ub-AFC as substrate assessed as substrate cleavage at 1 to 10 uM preincubated for 15 mins followed by substrate addition and measured after 1 hrs by fluorescence assay. The settings on record: dose 1-10 µM, time 75.0 min.

Assay [3] concerns the target T3, Ubiquitin carboxyl-terminal hydrolase 25 (Homo sapiens) (UniProt Q9UHP3).
T3 sequence (whole entry): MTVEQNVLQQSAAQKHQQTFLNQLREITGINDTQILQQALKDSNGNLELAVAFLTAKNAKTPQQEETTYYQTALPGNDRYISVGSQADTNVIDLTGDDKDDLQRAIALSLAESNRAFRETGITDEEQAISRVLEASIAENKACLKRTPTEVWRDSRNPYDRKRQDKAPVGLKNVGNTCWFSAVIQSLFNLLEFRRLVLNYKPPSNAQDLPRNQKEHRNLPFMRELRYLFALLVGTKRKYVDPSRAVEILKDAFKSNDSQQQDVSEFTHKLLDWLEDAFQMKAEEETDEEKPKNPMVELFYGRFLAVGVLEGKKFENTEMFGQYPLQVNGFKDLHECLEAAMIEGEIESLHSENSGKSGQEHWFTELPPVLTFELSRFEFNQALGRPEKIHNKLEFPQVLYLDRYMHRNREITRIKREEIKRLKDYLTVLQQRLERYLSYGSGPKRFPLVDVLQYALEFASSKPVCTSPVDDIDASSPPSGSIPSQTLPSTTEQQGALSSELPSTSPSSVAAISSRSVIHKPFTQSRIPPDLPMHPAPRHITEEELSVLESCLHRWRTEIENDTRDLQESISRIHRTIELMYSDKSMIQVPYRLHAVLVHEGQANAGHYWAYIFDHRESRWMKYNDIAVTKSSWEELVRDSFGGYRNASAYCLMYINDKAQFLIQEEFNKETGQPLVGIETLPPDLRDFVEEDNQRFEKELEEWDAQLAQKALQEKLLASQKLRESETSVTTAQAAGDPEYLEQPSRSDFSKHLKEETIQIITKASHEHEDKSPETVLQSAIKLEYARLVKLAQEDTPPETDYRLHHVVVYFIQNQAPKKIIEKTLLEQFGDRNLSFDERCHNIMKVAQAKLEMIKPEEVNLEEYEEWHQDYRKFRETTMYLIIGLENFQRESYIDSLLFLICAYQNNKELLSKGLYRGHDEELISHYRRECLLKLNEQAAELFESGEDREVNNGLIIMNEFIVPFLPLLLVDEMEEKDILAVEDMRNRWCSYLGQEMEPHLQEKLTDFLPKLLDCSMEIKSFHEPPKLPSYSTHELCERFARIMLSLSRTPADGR
Briefly: Inhibition of USP25 (unknown origin) using Ub-AFC as substrate assessed as substrate cleavage at 1 to 10 uM preincubated for 15 mins followed by substrate addition and measured after 1 hrs by fluorescence assay. The settings on record: dose 1-10 µM, time 75.0 min.

In assay [4] the target is T1, Ubiquitin carboxyl-terminal hydrolase 7. The settings on record: CHP-212, dose 0-1000 nM, time 24.0 hrs.
Assay [5] has the same target. The settings on record: CHP-212, dose 0-1000 nM, time 24.0 hrs. This is another data set of the same source.
Assay [6] shares this target. The settings on record: dose 25.0 µM.
Description: Induction of thermal stabilization of USP7 (unknown origin) assessed as change in melting temperature at 25 uM incubated under 35 to 60 degreeC by fluorescence based thermal shift assay
Assay [7] has the same target. The settings on record: CHP-212, dose 0-1000 nM, time 24.0 hrs. The source holds these as a separate data set.

The source made the active and inactive calls. The rule behind the calls is not given here.

This passage reports ΔTm and inhibition results from ChEMBL document CHEMBL5614397, “Discovery of pyrrolo[2,3-d]pyrimidin-4-one derivative YCH3124 as a potent USP7 inhibitor for cancer therapy” (Eur J Med Chem, 2024).

T1 sequence (Q93009 whole entry, looked up): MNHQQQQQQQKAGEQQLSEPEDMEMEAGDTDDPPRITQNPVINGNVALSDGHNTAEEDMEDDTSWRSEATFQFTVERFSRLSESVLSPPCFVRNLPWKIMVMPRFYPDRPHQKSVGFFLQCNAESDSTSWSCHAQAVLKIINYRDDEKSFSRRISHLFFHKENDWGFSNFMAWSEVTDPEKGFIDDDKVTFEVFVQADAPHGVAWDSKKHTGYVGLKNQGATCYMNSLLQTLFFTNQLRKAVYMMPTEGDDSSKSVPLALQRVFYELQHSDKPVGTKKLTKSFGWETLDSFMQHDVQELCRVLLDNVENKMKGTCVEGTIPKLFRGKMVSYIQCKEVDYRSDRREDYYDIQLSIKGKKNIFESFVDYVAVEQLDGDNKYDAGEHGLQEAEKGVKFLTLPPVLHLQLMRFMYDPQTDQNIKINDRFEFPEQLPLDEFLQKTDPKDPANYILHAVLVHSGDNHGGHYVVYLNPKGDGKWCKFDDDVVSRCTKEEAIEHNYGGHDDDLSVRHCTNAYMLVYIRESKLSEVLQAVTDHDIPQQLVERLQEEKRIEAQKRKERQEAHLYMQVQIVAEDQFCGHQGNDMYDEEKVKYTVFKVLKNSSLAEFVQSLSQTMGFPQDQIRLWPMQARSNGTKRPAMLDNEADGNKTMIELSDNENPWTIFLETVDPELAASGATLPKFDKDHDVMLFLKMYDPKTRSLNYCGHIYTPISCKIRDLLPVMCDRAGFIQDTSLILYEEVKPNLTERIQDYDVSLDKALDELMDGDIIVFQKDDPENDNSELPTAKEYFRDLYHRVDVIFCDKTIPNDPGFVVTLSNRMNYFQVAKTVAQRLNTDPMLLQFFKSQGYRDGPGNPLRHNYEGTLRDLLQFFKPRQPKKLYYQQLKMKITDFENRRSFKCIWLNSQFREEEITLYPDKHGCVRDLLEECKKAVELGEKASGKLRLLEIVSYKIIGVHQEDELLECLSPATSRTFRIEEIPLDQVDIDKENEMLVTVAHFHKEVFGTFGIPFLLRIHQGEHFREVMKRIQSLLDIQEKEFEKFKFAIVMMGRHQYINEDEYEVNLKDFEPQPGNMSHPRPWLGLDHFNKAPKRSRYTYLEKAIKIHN

As a reminder, the ΔTm is the change in melting temperature against a reference sample. Take `COc1ccc(-n2ccc3c(=O)n(CC4(O)CCN(C(=O)C[C@@H](C)c5ccccc5)CC4)cnc32)cc1OC`: the values for the ΔTm in assay [1] and in assay [6] were 0.24 °C and 1.85 °C, respectively. For the same molecule, the inhibition result in assay [2] and in assay [3] was “inactive” each time. The inhibition result in assay [4], in assay [5] and in assay [7] was “Dose-Dependent Effect” in each case.
